Reference: patent US20020018768A1, “Control of gene expression” (YISSUM RESEARCH DEVELOPMENT COMPANY OF THE HEBREW …, priority 1999, published 2002)

System: CFTR transcripts carrying the 3849+10 kb C→T mutation in 091398K cells
Test: Splicing of native CFTR transcripts in 091398K nasal polyp epithelial cell line after transient transfection with splicing factors (DAC-30)
Assay type: cell-based
Conditions: transfection efficiency ~60%, untreated 21%
Excerpt: A polyp sample from a CF patient, compound heterozygous for the splicing mutation 3849+10 kb C→T and the W 1282X mutations was obtained. This patient suffered from nasal polyps and underwent nasal polypectomy. An epithelial cell line (091398K) was established from the polyp sample in collaboration with Dr. J. Yankaskas from the University of North Carolina. […] Thus a system in which the effect of splicing factors or) a native CFTR gene could be studied, was established.
Transient transfections of 091398 k cells with cellular factors were performed, using DAC-30. […] The viral factor E4-oRF3 slightly promoted exon inclusion and led to an increase in, the level of aberrantly spliced transcripts (21% to 28%). Thus, the mean effect could have reached ˜35%.

ASF/SF2: cellular SR protein splicing factor, overexpressed by transient transfection
level of aberrantly spliced CFTR transcripts after overexpression: 11%
